The results in this text go back to US11089783B2, “2-(het)aryl-substituted fused heterocycle derivatives as pesticides” (Bayer Aktiengesellschaft, priority 2017, dated 2021).

Each structure is given as a SMILES string.

Common to all, as to type: in vivo
Experiment [1] has as its system Phaedon cochleariae. Description: Phaedon cochleariae spray test (PHAECO), Chinese cabbage leaf discs. Further details: key to repellent effect flag: REP = repellent effect. The settings on record: for pest or weed control at 100 g/ha: read-out: efficacy. As for the experimental part:
(§1) [table] To produce a suitable active ingredient formulation, 1 part by weight of active ingredient is dissolved with the specified parts by weight of solvent and made up to the desired concentration with water containing an emulsifier concentration of 1000 ppm. To produce further test concentrations, the formulation is diluted with emulsifier-containing water. Discs of Chinese cabbage leaves (Brassica pekinensis) are sprayed with an active ingredient formulation of the desired concentration and, after drying, populated with larvae of the mustard beetle (Phaedon cochleariae). After 7 days, the efficacy in % is determined. 100% means that all the beetle larvae have been killed; 0% means that no beetle larvae have been killed. [table] To produce an appropriate active ingredient formulation, 1 part by weight of active ingredient is dissolved with the stated parts by weight of solvent and made up with water containing an emulsifier concentration of 1000 ppm until the desired concentration is attained. For production of further test concentrations, the mixture is diluted with emulsifier-containing water. Discs of chinese cabbage leaves (Brassica pekinensis) are sprayed with an active ingredient formulation of the desired concentration and, after drying, populated with larvae of the mustard beetle (Phaedon cochleariae). After the desired time, the efficacy in % is determined. 100% means that all beetle larvae have been killed; 0% means that no beetle larvae have been killed.

The test system of experiment [2] is Nilaparvata lugens. Description: Nilaparvata lugens spray test (NILALU). The note with it: 4 g/ha, 4 dat. The protocol:
(§2) [table] To produce an appropriate active ingredient formulation, 1 part by weight of active ingredient is dissolved with the specified parts by weight of solvent and made up with water containing an emulsifier concentration of 1000 ppm until the desired concentration is attained. To produce further test concentrations, the mixture is diluted with emulsifier-containing water. If addition of ammonium salts or/and penetrants is required, these are each added to the preparation solution in a concentration of 1000 ppm. Rice plants (Oryza sativa) are sprayed with an active ingredient formulation of the desired concentration and then populated with larvae of the brown planthopper (Nilaparvata lugens). After the desired time, the efficacy in % is determined. 100% means that all planthoppers have been killed; 0% means that no planthoppers have been killed.

Experiment [3] concerns Aphis gossypii. As to the kind of experiment: Aphis gossypii spray test (APHIGO), cotton plants. The note with it: 6 dat. The protocol: as §2, with “Cotton” for “Rice”, “(Gossypium hirsutum) severely infested by the cotton aphid (Aphis gossypii)” for “(Oryza sativa)”, “concentration.” for “concentration and then populated with larvae of the brown planthopper (Nilaparvata lugens).”, “kill” for “efficacy”, “aphids” for “planthoppers”

Experiment [4] deals with Myzus persicae. Description: Myzus persicae spray test (MYZUPE), Chinese cabbage leaf discs. The note with it: for pest or weed control at 20 g/ha / pest or weed control at 100 g/ha: Myzus persicae, foliar, 120 h, 5 days (5 dat), read-out: efficacy. The protocol:
as §1, with “pekinensis) infested by all stages of the green peach aphid (Myzus persicae)” for “pekinensis)”, “concentration.” for “concentration and, after drying, populated with larvae of the mustard beetle (Phaedon cochleariae).”, “5” for “7”, “aphids” for “beetle larvae”

The subject of experiment [5] is Meloidogyne incognita. Description: Meloidogyne incognita test (MELGIN). The settings on record: 14 days (14 dat); for pest or weed control at 20 ppm: Meloidogyne incognita, 336 h, read-out: efficacy (nematicidal, gall formation). As for the experimental part:
[table] To produce a suitable active ingredient formulation, 1 part by weight of active ingredient is mixed with the stated amount of solvent and the concentrate is diluted to the desired concentration with water. Vessels are filled with sand, active ingredient solution, an egg/larvae suspension of the southern root-knot nematode (Meloidogyne incognita) and lettuce seeds. The lettuce seeds germinate and the plants develop. The galls develop on the roots. After 14 days, the nematicidal efficacy in % is determined by the formation of galls. 100% means that no galls were found; 0% means that the number of galls on the treated plants corresponds to the untreated control. [table] To produce an appropriate active ingredient formulation, 1 part by weight of active ingredient is mixed with the specified amount of solvent and the concentrate is diluted to the desired concentration with water. Vessels are filled with sand, active ingredient solution, an egg/larvae suspension of the southern root-knot nematode (Meloidogyne incognita) and lettuce seeds. The lettuce seeds germinate and the plants develop. The root-knots develop on the roots. After the desired time, the nematicidal effect is determined from the formation of root-knots in %. 100% means that no root-knots were found; 0% means that the number of root-knots on the treated plants corresponds to that on the untreated control.

The subject of experiment [6] is Lucilia cuprina. As to the kind of experiment: Lucilia cuprina test. The note with it: 48 h, L1 larvae, after 2 days, read-out: efficacy (kill). As for the experimental part:
Solvent: dimethyl sulfoxide To produce a suitable active ingredient formulation, 10 mg of active ingredient are mixed with 0.5 ml of dimethyl sulfoxide, and the concentrate is diluted with water to the desired concentration. About 20 L1 larvae of the Australian sheep blowfly (Lucilia cuprina) are transferred into a test vessel containing minced horsemeat and the active ingredient formulation of the desired concentration. After 2 days, the kill in % is determined. 100% means that all the larvae have been killed; 0% means that no larvae have been killed.

In experiment [7] the test system is Myzus persicae. Description: Myzus persicae oral test. The note with it: 120 h, after 5 days, read-out: efficacy. As for the experimental part: [table] To produce a suitable active ingredient formulation, 1 part by weight of active ingredient is dissolved with the stated parts by weight of solvent and made up to the desired concentration with water. 50 μl of the active ingredient preparation are transferred into microtitre plates and made up to a final volume of 200 μl with 150 μl of IPL41 insect medium (33%+15% sugar). Subsequently, the plates are sealed with parafilm, which a mixed population of green peach aphids (Myzus persicae) within a second microtitre plate is able to puncture and imbibe the solution. After 5 days, the efficacy in % is determined. 100% means that all the aphids have been killed; 0% means that no aphids have been killed.

Experiment [8] concerns Nezara viridula. Description: Nezara viridula spray test (NEZARA / NEZAVI). The settings on record: Nezara viridula, 96 h, 4 dat, read-out: % efficacy. As for the experimental part: as §2, with “Barley” for “Rice”, “(Hordeum vulgare) infected with larvae of the southern green shield bug (Nezara viridula)” for “(Oryza sativa)”, “concentration.” for “concentration and then populated with larvae of the brown planthopper (Nilaparvata lugens).”, “bugs” for “planthoppers”

The subject of experiment [9] is Myzus persicae. As to the kind of experiment: Myzus persicae spray test (MYZUPE S), bell pepper plants. The note with it: 144 h, 0.8 ppm, 6 dat, read-out: % efficacy. The protocol:
[table] To produce an appropriate active ingredient formulation, 1 part by weight of active ingredient is dissolved with the specified parts by weight of solvent and made up with water containing an emulsifier concentration of 1000 ppm until the desired concentration is attained. To produce further test concentrations, the mixture is diluted with emulsifier-containing water. If addition of ammonium salts or/and penetrants is required, these are each added to the preparation solution in a concentration of 1000 ppm. Bell pepper plants (Capsicum annuum) severely infested by the green peach aphid (Myzus persicae) are treated by spraying with the active ingredient formulation in the desired concentration. After the desired time, the kill in % is determined. 100% means that all the animals have been killed; 0% means that no animals have been killed.

[10] abbreviates: Phaedon cochleariae, foliar, 168 h, 100 g/ha, 7 days (7 dat).
Setting [11] is: Phaedon cochleariae, foliar, 168 h, PHAECO, 20 g/ha, 7 dat.
[12] abbreviates: Phaedon cochleariae, foliar, 168 h, PHAECO, 20 g/ha, 7 dat, read-out: % efficacy.

The molecule `CCS(=O)(=O)c1ccc(C(=O)NC)nc1-c1nc2cc(C(F)(F)C(F)(F)F)nnc2n1C` [Ex. I-39 from WO2017/025419, reference compound] yielded an efficacy in [1] (100 g/ha, 7 days (7 dat)) of 0%. Besides, the “% efficacy” value in [1] (PHAECO, 20 g/ha, 7 dat) was determined as 0%; in experiment [2] it was 0%; in experiment [3] (0.8 ppm), 0%; in experiment [3] (4 ppm), 55%; in experiment [4] (MYZUPE, 4 g/ha, 5 dat), 0%. The “efficacy (nematicidal, gall formation)” value in experiment [5] (20 ppm) is 0%.

For `CNC(=O)c1ccc(S(C)(=O)=O)c(-c2nc3cc(C(F)(F)C(F)(F)F)nnc3n2C)n1` [Example I-06], the pest or weed control at 100 g/ha in [1] (setting [10]) turned out to be 67%; in experiment [4], 90%. For the same molecule, in experiment [4], the pest or weed control at 20 g/ha came out at 70%. Moreover, the pest or weed control at 100 ppm in experiment [6] turned out to be 95%. Moreover, the pest or weed control at 0.8 ppm in experiment [7] turned out to be 100%.

Consider `Cn1c(-c2nc(C(=O)NC3CC3)ccc2S(C)(=O)=O)nc2cc(C(F)(F)C(F)(F)F)nnc21` [Example I-07], for which the repellent effect flag entry in experiment [1] (PHAECO, 20 g/ha, 7 dat) is “REP”. Also, the pest or weed control at 100 g/ha in experiment [1] (setting [10]) amounted to 100%. In addition, in experiment [1] (setting [11]), the percent efficacy (larval mortality) at a fixed application rate at 20 g/ha was determined as 100%. Also, the pest or weed control at 0.8 ppm in [7] was 90%.

As for `CCNC(=O)c1ccc(S(C)(=O)=O)c(-c2nc3cc(C(F)(F)C(F)(F)F)nnc3n2C)n1` [Example I-14], the pest or weed control at 100 g/ha in experiment [1] (setting [10]) came to 100%. Further, the Emax at 20 g/ha in [1] (setting [12]) came to 83%. The pest or weed control at 100 ppm in experiment [6] stood at 90%. Besides, the pest or weed control at 0.8 ppm in experiment [7] was determined as 90%.

Consider `CCS(=O)(=O)c1ccc(N(C)C(=O)N(C)C)nc1-c1nc2cc(C(F)(F)C(F)(F)F)nnc2n1C` [Example I-15], for which the pest or weed control at 100 g/ha in experiment [1] (setting [10]) was 100%. Further, the Emax at 20 g/ha in [1] (setting [12]) turned out to be 83%. For the same molecule, in [4], the pest or weed control at 20 g/ha was determined as 90% and the pest or weed control at 100 g/ha was 100%. In [8], the Emax at 0.8 g/ha came out at 80% and the Emax at 4 g/ha turned out to be 100%. In [5], the pest or weed control at 20 ppm is 90%. Besides, the pest or weed control at 0.8 ppm in [7] was found to be 100%.

For `CCS(=O)(=O)c1ccc(C(=O)N(C)C)nc1-c1nc2cc(C(F)(F)F)nnc2n1C` [reference compound], the pest or weed control at 100 g/ha in experiment [1] (setting [10]) came to 33%. For the same molecule, the Emax at 0.8 ppm in experiment [3] (Aphis gossypii, 144 h, 0.8 ppm, read-out: % efficacy) stood at 0%; in experiment [9], 50%.

For `CNC(=O)c1ccc(S(C)(=O)=O)c(-c2nc3cc(C(F)(F)F)nnc3n2C)n1` [reference compound], the pest or weed control at 100 g/ha in experiment [1] (setting [10]) came out at 0%. In experiment [4], the pest or weed control at 20 g/ha was determined as 0% and the pest or weed control at 100 g/ha came to 0%.

As to `Cn1c(-c2nc(C(=O)NC3CC3)ccc2S(C)(=O)=O)nc2cc(C(F)(F)F)nnc21` [reference compound], in experiment [1] (setting [10]), the pest or weed control at 100 g/ha was 50%. For the same molecule, the Emax at 20 g/ha in experiment [1] (setting [12]) worked out at 0%.

Regarding `CN(C)C(=O)Nc1ccc(S(C)(=O)=O)c(-c2nc3cc(C(F)(F)F)nnc3n2C)n1` [reference compound], the pest or weed control at 100 g/ha in experiment [1] (setting [10]) was 0%. Besides, the percent efficacy (larval mortality) at a fixed application rate at 20 g/ha in experiment [1] (setting [11]) came out at 0%. Moreover, in [4], the pest or weed control at 20 g/ha was 0% and the pest or weed control at 100 g/ha turned out to be 0%. In addition, the pest or weed control at 20 ppm in [5] was 0%.

As to `CCNC(=O)Nc1ccc(S(=O)(=O)CC)c(-c2nc3cc(C(F)(F)F)nnc3n2C)n1` [reference compound], the pest or weed control at 100 g/ha in experiment [1] (setting [10]) turned out to be 50%. For the same molecule, the Emax at 4 g/ha in experiment [1] (Phaedon cochleariae, foliar, 168 h, PHAECO, 4 g/ha, 7 dat, read-out: % efficacy) was determined as 0%; in [8], 0%. Further, in experiment [1] (setting [12]), the Emax at 20 g/ha amounted to 67%.

As to `CCNC(=O)c1ccc(S(C)(=O)=O)c(-c2nc3cc(C(F)(F)F)nnc3n2C)n1` [reference compound], in experiment [1] (setting [10]), the pest or weed control at 100 g/ha is 0%. This molecule showed a percent efficacy (larval mortality) at a fixed application rate at 20 g/ha in experiment [1] (setting [11]) of 0%.

For `CCS(=O)(=O)c1ccc(N(C)C(=O)N(C)C)nc1-c1nc2cc(C(F)(F)F)nnc2n1C` [reference compound], in experiment [1] (setting [10]), the pest or weed control at 100 g/ha is 0%. Moreover, the percent efficacy (larval mortality) at a fixed application rate at 20 g/ha in experiment [1] (setting [11]) came to 0%. For the same molecule, in experiment [8], the Emax at 0.8 g/ha came out at 0% and the Emax at 4 g/ha worked out at 50%.
